Measured values taken from patent US20130289070A1, “Use of Levocabastine for Modulating Generation of Pro-Inflammatory Cytokines” (Bausch & Lomb Incorporated, priority 2007, published 2013).

Tested on: EoL-1 (human eosinophilic leukaemia cell line) cells
Test: TNF-α-induced cytokine release, differentiated and non-differentiated EoL-1 cells
Format: cell-based
Procedure: EoL-1 (human eosinophilic leukaemia cell line) cells (Saito et al., 1985; Mayumi, 1992) were maintained in RPMI-1640 medium with L-glutamine supplemented with 10% (v/v) FBS at 37° C. in a humidified atmosphere with 5% CO2. Where indicated, 24 h before the experiment 25 ng/mL PMA ((phorbol 12-myristate 13-acetate, purchased from Sigma Aldrich) was added to the medium to induce eosinophil granulation and differentiation (Ohtsu et al., 1993; Zimmermann et al., 2000). Half-million cells were aliquoted per point in a 24 well plate; each experiment was performed in triplicate and carried out in parallel with eosinophils differentiated and non differentiated with PMA (25 ng/mL, 24 h). Cells were suspended in low serum medium (RPMI-1640, 0.1% (v/v) FBS). TNF-α was used to induce cytokine secretion as previously described by Steube et al. (2000), and the net release was obtained by comparison to the basal (non-TNF-α treated). In the first experiment we evaluated the concentration and time relation between TNF-α stimulation and cytokine release. […] An aliquot of 150 μL of supernate was collected for cytokines' analysis. […] Differentiated and non-differentiated EoL-1 cells were exposed from 0.1 to 2.3 mM levocabastine ([…]Levocabastine 0.05% solution eye drops containing cyclodextrins, without benzalkonium chloride), and aliquots of the supernates were collected after 12 and 24 h. The content of cytokines at time zero was estimated by treating the cells with 400 nM calcimycin (A-23187), which is a cytolytic agent that frees all the mediators from the cytoplasmic compartment. In addition, for each experiment we tested the effect of the vehicle, which was added to the wells in a concentration equal to the maximum amount used for drug dilution. Samples (supernates 12 and 24 h) in triplicate were analyzed using Luminex 200™ (Luminex, Austin, Tex.) and Beadview software v1.0 (Upstate Cell Signaling Solutions, Temecula, Calif.). All data are presented as mean±SEM for the indicated number of experiments. Statistical significance was determined by Newman-Keuls test after ANOVA using GraphPad Prism (version 3.0; GraphPad Software Inc., San Diego, Calif., USA).

[1] = TNF-α challenge, text summary of Tables T-1, T-2
[2] = overall conclusion, in a concentration-dependent manner
[3] = overall conclusion, in a concentration-dependent way

C[C@@H]1CN([C@H]2CC[C@](C#N)(c3ccc(F)cc3)CC2)CC[C@]1(C(=O)O)c1ccccc1 [Levocabastine, levocabastine]
release of IL-12p40 induced by TNF-α (2 mM, TNF-α 10 ng, 24 h, without PMA or differentiated with it, not influenced by VCAM-1 or fibronectin (FIG. 10)): effective in reducing the release
release of VEGF induced by TNF-α (2 mM, TNF-α 10 ng, 24 h, without PMA or differentiated with it, not influenced by VCAM-1 or fibronectin (FIG. 14)): effective in reducing the release
release of IL-12 P40 induced by TNF-α (2 mM, TNF-α 5, 10 and 20 ng, 12 h, without PMA or differentiated with it (FIG. 5)): capable of reducing the release
release of VEGF induced by TNF-α (2 mM, TNF-α 5, 10 and 20 ng, 24 h, without PMA or differentiated with it (FIG. 6)): capable of reducing the release
release of VEGF induced by TNF-α (2 mM, TNF-α 5, 10 and 20 ng, 24 h, without PMA or differentiated with it (FIG. 8)): capable of reducing the release
release of IP-10 induced by TNF-α (0.1, 0.5 and 1.0 mM, 12 h, without PMA or differentiated with it (FIG. 1)): capable to prevent the release
release of VEGF induced by TNF-α (0.1, 0.5 and 1.0 mM, 24 h, without PMA or differentiated with it (FIG. 4)): capable to prevent the release
VEGF release (FIG. 14) (PMA differentiated and indifferentiated EoL-1 cells, after TNF-α challenge): able to reduce
release of IL-1β [1]: significantly reduce
release of IP-10 [1]: significantly reduce
TNF-α-induced release of IL-8 (overall conclusion): statistical significant reduction
TNF-α-induced release of IL-12p40 (overall conclusion): statistical significant reduction
TNF-α-induced release of VEGF (overall conclusion): statistical significant reduction
cytokine release, general effect (overall conclusion, following TNF-α stimulation): concentration-related reduction
release of IL1-ra [2]: significantly reduced
release of IL-1β [2]: significantly reduced
release of IP-10 [2]: significantly reduced
secretion of MIP-1α [3]: increasing the secretion
secretion of RANTES [3]: increasing the secretion
